Structures can show the parent of a compound that is named as a salt.
Key:
PPARγ-RXRα heterodimer = target: T1, PPARγ-RXRα heterodimer (Homo sapiens, UniProt P37231); assay: PPARγ-RXRα heterodimer ligand activity (luciferase reporter); format: cell-based; settings: PPARγ:RXRα:4ERPP/CHO-K1 cells, 18-24 hr, concentration showing 50% of the maximum induction rate
T1 construct: expressed in transfected cells; host or cells: CHO-K1
T1 sequence (P37231 1-505): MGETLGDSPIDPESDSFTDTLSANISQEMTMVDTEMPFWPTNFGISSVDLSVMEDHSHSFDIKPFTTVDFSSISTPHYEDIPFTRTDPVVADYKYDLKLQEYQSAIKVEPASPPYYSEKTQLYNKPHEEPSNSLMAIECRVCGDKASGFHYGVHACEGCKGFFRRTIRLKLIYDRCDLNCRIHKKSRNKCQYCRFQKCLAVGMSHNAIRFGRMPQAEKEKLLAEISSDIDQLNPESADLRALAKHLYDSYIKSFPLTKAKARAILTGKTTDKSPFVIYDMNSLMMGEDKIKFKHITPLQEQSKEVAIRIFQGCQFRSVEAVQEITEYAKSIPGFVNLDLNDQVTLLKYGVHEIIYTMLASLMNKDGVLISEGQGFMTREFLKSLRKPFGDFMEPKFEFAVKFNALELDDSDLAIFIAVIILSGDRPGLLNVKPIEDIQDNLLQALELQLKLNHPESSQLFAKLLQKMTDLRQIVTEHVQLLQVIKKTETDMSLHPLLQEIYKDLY
T1 sequence (P19793 1-462 partner): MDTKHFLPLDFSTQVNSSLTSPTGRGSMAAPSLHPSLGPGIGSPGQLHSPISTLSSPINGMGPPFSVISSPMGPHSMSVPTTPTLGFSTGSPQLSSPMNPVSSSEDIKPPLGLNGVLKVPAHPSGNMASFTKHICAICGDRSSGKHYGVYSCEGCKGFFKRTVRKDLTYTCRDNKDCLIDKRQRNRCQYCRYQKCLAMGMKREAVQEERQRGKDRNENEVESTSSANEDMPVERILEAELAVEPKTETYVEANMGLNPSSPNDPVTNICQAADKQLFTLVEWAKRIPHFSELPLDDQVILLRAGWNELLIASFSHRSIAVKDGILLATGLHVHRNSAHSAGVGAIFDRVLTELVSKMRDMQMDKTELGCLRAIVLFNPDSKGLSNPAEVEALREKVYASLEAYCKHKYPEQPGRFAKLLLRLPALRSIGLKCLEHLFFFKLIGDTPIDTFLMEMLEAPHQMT
Protocol: The PPARγ:RXRα:4ERPP/CHO-K1 cells described in WO03/099793 were cultured in a Ham F12 medium [manufactured by Life Technologies, Inc., US] containing 10% calf fetal serum [manufactured by Life Technologies, Inc., US], sown in a 96-well white plate [manufactured by Corning Coster Corporation, US] at 2×10^4 cells/well, and incubated overnight in a carbon dioxide gas incubator at 37° C.
Then, the medium was removed from the 96 well white plate, 80 μl of Ham F12 medium containing 0.1% fatty acid-free bovine serum albumin (BSA) and a test compound (20 μl) were added, and the cells were incubated for 18-24 hr in a carbon dioxide gas incubator at 37° C. The medium was removed, 40 μl of PicaGene 7.5 (manufactured by Wako Pure Chemical Industries, Ltd.) diluted 2-fold with HBSS (HANKS' BALANCED SALT SOLUTION) [manufactured by BIO WHITTAKER, US] was added. After stirring, the luciferase activity was determined using the 1420 ARVO Multilabel Counter [manufactured by PerkinElmer, US].
The induction rate was calculated from the luciferase activity of each test compound based on the luciferase activity of the test compound non-administration group as 1. The test compound concentration and the induction rate were analyzed by PRISM [manufactured by GraphPad Software, Inc., US] to calculate EC50 value (compound concentration showing 50% of the maximum value of induction rate) of the test compound.

Compound	melting point	EC50 (PPARγ-RXRα heterodimer)
CCCOc1cc(CCCOc2c(CC(=O)O)cccc2OC)n(Cc2ccccc2OC)n1 [Example 83, (2-{3-[1-(2-methoxybenzyl)-3-propoxy-1H-pyrazol-5-yl]propoxy}-3-methoxyphenyl)acetic acid]	79 to 82 °C	18 nM
CC(C)Oc1ccc(CCCOc2nn(Cc3ccccc3)cc2CC(=O)O)c(Oc2ncc(Cl)cc2Cl)c1 [Example 133, [1-benzyl-3-(3-{2-[(3,5-dichloropyridin-2-yl)oxy]-4-isopropoxyphenyl}propoxy)-1H-pyrazol-4-yl]acetic acid]	111 to 113 °C	1.2 nM
CC(C)c1cc(CCCOc2nn(Cc3ccccc3)cc2CC(=O)O)n(Cc2ccc(C(F)(F)F)cc2Cl)n1 [Example 75, [1-benzyl-3-(3-{1-[2-chloro-4-(trifluoromethyl)benzyl]-3-isopropyl-1H-pyrazol-5-yl}propoxy)-1H-pyrazol-4-yl]acetic acid]	–	1.9 nM
CC(C)Oc1cc(CCCOc2nn(Cc3ccccc3)cc2CC(=O)O)n(Cc2ccc(Cl)cc2OC(C)C)n1 [Example 71, (1-benzyl-3-{3-[1-(4-chloro-2-isopropoxybenzyl)-3-isopropoxy-1H-pyrazol-5-yl]propoxy}-1H-pyrazol-4-yl)acetic acid]	–	39 nM
CCS(=O)(=O)CCOc1cc(CCCOc2nn(Cc3ccccc3)cc2CC(=O)O)n(Cc2ccc(Cl)cc2Cl)n1 [Example 98, [1-benzyl-3-(3-{1-(2,4-dichlorobenzyl)-3-[2-(ethylsulfonyl)ethoxy]-1H-pyrazol-5-yl}propoxy)-1H-pyrazol-4-yl]acetic acid]	100.4 to 101.4 °C	5.1 nM
Cc1cc(C(F)(F)F)ccc1Cn1nc(OC(C)C)cc1CCCOc1ncccc1CC(=O)O [Example 80, [2-(3-{3-isopropoxy-1-[2-methyl-4-(trifluoromethyl)benzyl]-1H-pyrazol-5-yl}propoxy)pyridin-3-yl]acetic acid]	105 to 107 °C	5.4 nM
COc1cccc(CC(=O)O)c1OCCCc1cc(C(C)C)nn1Cc1ccc(Cl)cc1Cl [Example 35, (2-{3-[1-(2,4-dichlorobenzyl)-3-isopropyl-1H-pyrazol-5-yl]propoxy}-3-methoxyphenyl)acetic acid]	101 to 102 °C	2.7 nM
CC(C)c1cc(CCCOc2ncccc2CC(=O)O)n(Cc2ccc(Cl)cc2Cl)n1 [Example 37, (2-{3-[1-(2,4-dichlorobenzyl)-3-isopropyl-1H-pyrazol-5-yl]propoxy}pyridin-3-yl)acetic acid]	111 to 112 °C	6.4 nM
CC(C)c1cc(CCCOc2nn(Cc3ccccc3)cc2CC(=O)O)n(Cc2ccc(Cl)cc2Cl)n1 [Example 34, (1-benzyl-3-{3-[1-(2,4-dichlorobenzyl)-3-isopropyl-1H-pyrazol-5-yl]propoxy}-1H-pyrazol-4-yl)acetic acid 1/2 calcium salt]	–	1.7 nM
CC(C)Oc1cc(CCCOc2ncccc2CC(=O)O)n(Cc2ccc(F)cc2Cl)n1 [Example 93, (2-{3-[1-(2-chloro-4-fluorobenzyl)-3-isopropoxy-1H-pyrazol-5-yl]propoxy}pyridin-3-yl)acetic acid]	90 to 91 °C	42 nM
CC(C)Oc1ccc(CCCOc2cc(CCC(=O)O)n(C3CCCCC3)n2)c(Oc2ncc(C(F)(F)F)cc2Cl)c1 [Example 144, 3-{3-[3-(2-{[3-chloro-5-(trifluoromethyl)pyridin-2-yl]oxy}-4-isopropoxyphenyl)propoxy]-1-cyclohexyl-1H-pyrazol-5-yl}propanoic acid]	114 to 115 °C	3.7 nM
CC(C)Oc1ccc(CCCOc2nn(C)cc2CCC(=O)O)c(Oc2ncc(C(F)(F)F)cc2Cl)c1 [Example 145, 3-{3-[3-(2-{[3-chloro-5-(trifluoromethyl)pyridin-2-yl]oxy}-4-isopropoxyphenyl)propoxy]-1-methyl-1H-pyrazol-4-yl}propanoic acid]	–	2.6 nM
Cc1nc(OCCCc2cc(OC(C)C)nn2Cc2ccc(Cl)cc2Cl)c(CC(=O)O)s1 [Example 36, (4-{3-[1-(2,4-dichlorobenzyl)-3-isopropoxy-1H-pyrazol-5-yl]propoxy}-2-methyl-1,3-thiazol-5-yl)acetic acid]	75 to 77 °C	20 nM
CC(C)Oc1cc(CCCOc2nn(Cc3ccccc3)cc2CC(=O)O)n(Cc2ccc(F)cc2Cl)n1 [Example 92, (1-benzyl-3-{3-[1-(2-chloro-4-fluorobenzyl)-3-isopropoxy-1H-pyrazol-5-yl]propoxy}-1H-pyrazol-4-yl)acetic acid]	121 to 123 °C	5.1 nM
CC(C)OCCOc1ccc(CCCOc2nn(C)cc2CC(=O)O)c(Oc2ncc(C(F)(F)F)cc2Cl)c1 [Example 177, (3-{3-[2-{[3-chloro-5-(trifluoromethyl)pyridin-2-yl]oxy}-4-(2-isopropoxyethoxy)phenyl]propoxy}-1-methyl-1H-pyrazol-4-yl)acetic acid]	103.5 to 104.5 °C	1.5 nM
CCCOc1cc(CCCOc2c(CC(=O)O)cccc2OC)n(C(C)c2ccc(Cl)cc2Cl)n1 (stereo not shown) [Example 19, [2-(3-{1-[1-(2,4-dichlorophenyl)ethyl]-3-propoxy-1H-pyrazol-5-yl}propoxy)-3-methoxyphenyl]acetic acid]	–	3.2 nM
COCCOc1ccc(CCCOc2cc(CCC(=O)O)n(C)n2)c(Oc2ncc(C(F)(F)F)cc2Cl)c1 [Example 148, 3-(3-{3-[2-{[3-chloro-5-(trifluoromethyl)pyridin-2-yl]oxy}-4-(2-methoxyethoxy)phenyl]propoxy}-1-methyl-1H-pyrazol-5-yl)propanoic acid]	114 to 115 °C	–
CCn1nc(OCCCc2ccc(OCCOC)cc2OCc2ccc(Cl)cc2Cl)cc1CCC(=O)O [Example 165, 3-(3-{3-{2-[(2,4-dichlorobenzyl)oxy]-4-(2-methoxyethoxy)phenyl}propoxy}-1-ethyl-1H-pyrazol-5-yl)propanoic acid]	114 to 116 °C	–
CCOc1cc(Cl)ccc1Cn1nc(OC(C)C)cc1CCCOc1c(CC(=O)O)cccc1OC [Example 69, (2-{3-[1-(4-chloro-2-ethoxybenzyl)-3-isopropoxy-1H-pyrazol-5-yl]propoxy}-3-methoxyphenyl)acetic acid]	98 to 99 °C	–
CCCOc1cc(COc2c(CC)cccc2CC(=O)O)n(Cc2ccc3ccccc3n2)n1 [Example 7, (3-ethyl-2-{[3-propoxy-1-(quinolin-2-ylmethyl)-1H-pyrazol-5-yl]methoxy}phenyl)acetic acid]	110 to 111 °C	–
CC(C)Cn1nc(OCCCc2ccc(OC(C)C)cc2OCc2ccc(Cl)cc2Cl)cc1CCC(=O)O [Example 162, 3-[3-(3-{2-[(2,4-dichlorobenzyl)oxy]-4-isopropoxyphenyl}propoxy) -1-isobutyl-1H-pyrazol-5-yl]propanoic acid]	133 to 134 °C	–
COc1cccc(CC(=O)O)c1OCCCc1cc(OC(C)C)nn1Cc1c(F)cccc1Cl [Example 67, (2-{3-[1-(2-chloro-6-fluorobenzyl)-3-isopropoxy-1H-pyrazol-5-yl]propoxy}-3-methoxyphenyl)acetic acid]	97 to 98 °C	–
COc1cccc(CC(=O)O)c1OCc1cc(OC(C)C)nn1Cc1ccc(Cl)cc1Cl [Example 50, (2-{[1-(2,4-dichlorobenzyl)-3-isopropoxy-1H-pyrazol-5-yl]methoxy}-3-methoxyphenyl)acetic acid]	127 to 128 °C	–

Source: patent US20080051418A1, “Arylalkanoic Acid Derivative” (priority 2004, published 2008)
